Test results from paper PMC7416749 (Journal of genetics and genomics = Yi chuan xue bao, 2020).

Experiments:
[1] = test system: dP75 IBD-containing C-terminus region (residues 209–445); test: Isothermal titration calorimetry; type: binding, Drosophila; details: ITC, 20 °C, mutant peptides 984–1004 compared with wild type
[2] = molecular target: dP75 IBD-containing C-terminus region (residues 209–445) (Drosophila melanogaster); test: ITC

Molecule	effect of substitution in Jil-1 peptide 984–1004 on binding to dP75 (in words) [1]	Kd [2] [µM]
Jil-1 peptide from the proximal site (…; residues 984–1004)	–	0.8
F992A: Jil-1 peptide 984–1004 with F992A substitution (EVQADFYGADENAPPLPLPEE; UniProt Q9V3I5 984-1004, looked up, variant F992A)	dramatically reduced the binding	–
F989A: Jil-1 peptide 984–1004 with F989A substitution (EVQADAYGFDENAPPLPLPEE; UniProt Q9V3I5 984-1004, looked up, variant F989A)	dramatically reduced the binding	–

The next lines start with the values.

effect of substitution in Jil-1 peptide 984–1004 on binding to dP75 (in words) [1]	Kd [2] [µM]	Molecule
dramatically reduced the binding	–	G991V: Jil-1 peptide 984–1004 with G991V substitution (EVQADFYVFDENAPPLPLPEE; UniProt Q9V3I5 984-1004, looked up, variant G991V)
–	120	KREENFYGFSK [Jil-1 peptide at the distal site (…; residues 1102–1112)]
